# Test results published in ChEMBL document CHEMBL3763037 (J Med Chem, 2016).
# Calls of active or inactive are those of the source. The calls are words filed in the database; no cut-off is given here.
# Assays:
# [1] = Oral bioavailability in Sprague-Dawley rat at 10 mg/kg by LC-MS/MS analysis; type: ADME, organism-based; details: Sprague-Dawley, in vivo
# [2] = AUC in Sprague-Dawley rat at 10 mg/kg, po by LC-MS/MS analysis; type: ADME, organism-based; details: Sprague-Dawley, in vivo
# [3] = Cmax in Sprague-Dawley rat at 10 mg/kg, po by LC-MS/MS analysis; type: ADME, organism-based; set-up: dose 10 mg/kg, route oral; details: in vivo
# [4] = Volume of distribution at steady state in Sprague-Dawley rat at 5 mg/kg, iv by LC-MS/MS analysis; type: ADME, organism-based; details: in vivo, read-out: Vdss
# [5] = Clearance in Sprague-Dawley rat at 5 mg/kg, iv by LC-MS/MS analysis; type: ADME, organism-based; details: in vivo
# [6] = (§1) Terminal eliminational half life in Sprague-Dawley rat at 5 mg/kg, iv by LC-MS/MS analysis; type: ADME, organism-based; details: Sprague-Dawley, in vivo, read-out: beta t1/2 (converted)
# [7] = Cytotoxicity against BRCA2-deficient human Capan1 cells; type: functional, cell-based, CAPAN-1
# MRC5 = test: Cytotoxicity against human MRC5 cells; type: cell-based
# Mus musculus [8] = test: Decrease in PAR level in athymic nu/nu mouse xenografted with human MX1 cells at 100 mg/kg, po measured after 2 and 8 hrs by ELISA; type: functional, organism-based
# MX1 [9] = test: Antitumor activity against BRCA1 deficient human MX1 cells xenografted in athymic nu/nu mouse at 100 mg/kg, po qd; type: functional, organism-based
# LoVo [10] = tested on: LoVo
# LoVo [11] = test: cells; details: Homo sapiens, 120 h
# [12] = biological target: Poly [ADP-ribose] polymerase 1 (Homo sapiens, UniProt P09874); test: Inhibition of human PARP1 using [3H]NAD as substrate after 1 min by microplate scintillation counting analysis
# Poly [ADP-ribose] polymerase 1, sequence (P09874 whole entry): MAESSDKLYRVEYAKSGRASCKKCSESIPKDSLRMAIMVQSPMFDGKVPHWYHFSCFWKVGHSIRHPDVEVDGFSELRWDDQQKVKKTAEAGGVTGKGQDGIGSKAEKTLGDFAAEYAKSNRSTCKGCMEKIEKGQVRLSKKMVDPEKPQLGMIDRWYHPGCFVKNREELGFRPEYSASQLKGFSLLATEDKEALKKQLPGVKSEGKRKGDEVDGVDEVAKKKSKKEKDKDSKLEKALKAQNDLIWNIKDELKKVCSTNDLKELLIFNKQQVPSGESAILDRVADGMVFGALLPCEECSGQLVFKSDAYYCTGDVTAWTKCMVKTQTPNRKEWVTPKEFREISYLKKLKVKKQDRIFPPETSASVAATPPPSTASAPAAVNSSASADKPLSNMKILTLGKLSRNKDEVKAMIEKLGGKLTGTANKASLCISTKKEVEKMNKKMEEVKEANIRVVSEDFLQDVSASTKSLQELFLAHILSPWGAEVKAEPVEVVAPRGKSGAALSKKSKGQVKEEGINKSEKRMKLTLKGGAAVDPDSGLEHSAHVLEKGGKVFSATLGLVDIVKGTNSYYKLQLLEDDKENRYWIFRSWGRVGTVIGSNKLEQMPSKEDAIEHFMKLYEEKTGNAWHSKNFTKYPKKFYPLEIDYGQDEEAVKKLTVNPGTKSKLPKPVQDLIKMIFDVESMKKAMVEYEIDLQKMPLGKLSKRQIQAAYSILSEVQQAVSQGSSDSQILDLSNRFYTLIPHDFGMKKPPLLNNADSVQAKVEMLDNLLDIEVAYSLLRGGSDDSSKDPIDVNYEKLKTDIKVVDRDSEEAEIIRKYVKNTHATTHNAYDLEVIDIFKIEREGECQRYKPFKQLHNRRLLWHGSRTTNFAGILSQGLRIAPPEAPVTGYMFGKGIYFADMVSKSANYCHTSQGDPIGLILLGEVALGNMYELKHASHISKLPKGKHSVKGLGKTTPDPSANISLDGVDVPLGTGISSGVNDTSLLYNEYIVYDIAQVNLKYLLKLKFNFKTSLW
# PARP 1, 2 and 3 = PARP 1, 2 and 3 (Homo sapiens, UniProt P09874+Q9Y6F1+Q9UGN5); test: Inhibition of PARP in human LoVo cells assessed as inhibition of poly(ADP)-ribose polymerization for 30 mins by fluorescence assay; type: cell-based
# Rattus norvegicus = test: as §1; type: ADME, organism-based; details: in vivo
# CYP2C19 = CYP2C19 (Homo sapiens, UniProt P33261); test: Inhibition of CYP2C19 (unknown origin) at 10 uM; type: ADME
# CYP2C19, sequence (P33261 whole entry): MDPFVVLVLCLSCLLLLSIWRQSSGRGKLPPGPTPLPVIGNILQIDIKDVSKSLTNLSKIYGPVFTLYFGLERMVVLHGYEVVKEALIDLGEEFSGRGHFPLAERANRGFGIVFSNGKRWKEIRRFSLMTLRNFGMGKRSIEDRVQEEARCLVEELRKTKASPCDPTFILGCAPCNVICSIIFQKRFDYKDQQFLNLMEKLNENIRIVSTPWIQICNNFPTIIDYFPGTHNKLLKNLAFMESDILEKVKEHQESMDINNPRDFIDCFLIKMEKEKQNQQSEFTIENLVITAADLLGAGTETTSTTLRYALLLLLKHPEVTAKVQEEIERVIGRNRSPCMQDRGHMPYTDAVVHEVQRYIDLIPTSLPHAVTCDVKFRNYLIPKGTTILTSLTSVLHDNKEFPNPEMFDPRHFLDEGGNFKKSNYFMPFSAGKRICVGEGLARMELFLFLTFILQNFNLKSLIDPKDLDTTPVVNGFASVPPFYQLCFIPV
# [13] = biological target: Voltage-gated inwardly rectifying potassium channel KCNH2 (Homo sapiens, UniProt Q12809); test: Inhibition of human ERG by cell based assay
# Voltage-gated inwardly rectifying potassium channel KCNH2, sequence (Q12809 whole entry): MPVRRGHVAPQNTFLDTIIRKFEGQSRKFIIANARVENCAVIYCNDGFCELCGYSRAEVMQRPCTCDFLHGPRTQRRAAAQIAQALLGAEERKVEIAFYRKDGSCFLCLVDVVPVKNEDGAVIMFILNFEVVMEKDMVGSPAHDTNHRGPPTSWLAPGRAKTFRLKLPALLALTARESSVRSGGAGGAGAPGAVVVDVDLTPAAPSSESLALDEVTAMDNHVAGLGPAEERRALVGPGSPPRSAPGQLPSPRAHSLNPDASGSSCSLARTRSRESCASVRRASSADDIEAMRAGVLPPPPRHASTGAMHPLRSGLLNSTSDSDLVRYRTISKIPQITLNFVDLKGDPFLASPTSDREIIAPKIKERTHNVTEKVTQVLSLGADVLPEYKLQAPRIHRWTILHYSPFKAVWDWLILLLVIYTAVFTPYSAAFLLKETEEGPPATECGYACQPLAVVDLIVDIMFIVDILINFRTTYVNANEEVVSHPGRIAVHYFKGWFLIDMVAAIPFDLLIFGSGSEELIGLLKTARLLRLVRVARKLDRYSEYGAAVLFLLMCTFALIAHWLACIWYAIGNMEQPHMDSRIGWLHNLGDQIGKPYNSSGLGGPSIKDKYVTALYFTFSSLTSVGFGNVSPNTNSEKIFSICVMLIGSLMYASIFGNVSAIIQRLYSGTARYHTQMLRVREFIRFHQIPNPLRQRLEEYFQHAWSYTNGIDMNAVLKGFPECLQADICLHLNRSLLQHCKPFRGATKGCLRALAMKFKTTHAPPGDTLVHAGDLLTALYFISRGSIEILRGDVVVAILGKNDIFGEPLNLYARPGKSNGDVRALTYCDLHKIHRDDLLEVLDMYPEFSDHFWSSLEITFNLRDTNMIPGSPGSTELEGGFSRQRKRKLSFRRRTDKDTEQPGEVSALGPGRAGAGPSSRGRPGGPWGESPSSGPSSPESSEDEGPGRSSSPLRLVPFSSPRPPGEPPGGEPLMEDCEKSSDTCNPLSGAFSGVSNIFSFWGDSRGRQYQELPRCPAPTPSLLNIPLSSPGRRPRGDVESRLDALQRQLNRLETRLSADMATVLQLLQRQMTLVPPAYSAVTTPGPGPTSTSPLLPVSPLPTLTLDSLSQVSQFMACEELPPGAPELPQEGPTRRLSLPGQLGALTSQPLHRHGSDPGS
# [14] = Plasma protein binding in human; type: ADME, cell-free; details: read-out: PPB (converted)
# CYP2C9 = CYP2C9 (Homo sapiens, UniProt P11712); test: Inhibition of CYP2C9 (unknown origin) at 10 uM; type: ADME
# CYP2C9, sequence (P11712 whole entry): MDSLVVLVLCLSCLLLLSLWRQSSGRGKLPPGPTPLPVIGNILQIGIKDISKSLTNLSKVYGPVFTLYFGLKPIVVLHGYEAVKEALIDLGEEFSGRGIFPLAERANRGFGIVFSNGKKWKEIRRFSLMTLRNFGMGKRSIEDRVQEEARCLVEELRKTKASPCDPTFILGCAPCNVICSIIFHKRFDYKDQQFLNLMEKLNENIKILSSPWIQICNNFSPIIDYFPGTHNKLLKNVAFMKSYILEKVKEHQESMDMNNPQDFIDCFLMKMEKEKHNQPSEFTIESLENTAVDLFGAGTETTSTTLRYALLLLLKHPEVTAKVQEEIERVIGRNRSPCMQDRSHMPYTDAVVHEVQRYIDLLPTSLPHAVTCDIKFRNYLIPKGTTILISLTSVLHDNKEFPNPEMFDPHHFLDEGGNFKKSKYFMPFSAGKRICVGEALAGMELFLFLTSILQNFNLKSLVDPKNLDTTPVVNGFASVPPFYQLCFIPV
# CYP2D6 = CYP2D6 (Homo sapiens, UniProt P10635); test: Inhibition of CYP2D6 (unknown origin) at 10 uM; type: ADME
# CYP2D6, sequence (P10635 whole entry): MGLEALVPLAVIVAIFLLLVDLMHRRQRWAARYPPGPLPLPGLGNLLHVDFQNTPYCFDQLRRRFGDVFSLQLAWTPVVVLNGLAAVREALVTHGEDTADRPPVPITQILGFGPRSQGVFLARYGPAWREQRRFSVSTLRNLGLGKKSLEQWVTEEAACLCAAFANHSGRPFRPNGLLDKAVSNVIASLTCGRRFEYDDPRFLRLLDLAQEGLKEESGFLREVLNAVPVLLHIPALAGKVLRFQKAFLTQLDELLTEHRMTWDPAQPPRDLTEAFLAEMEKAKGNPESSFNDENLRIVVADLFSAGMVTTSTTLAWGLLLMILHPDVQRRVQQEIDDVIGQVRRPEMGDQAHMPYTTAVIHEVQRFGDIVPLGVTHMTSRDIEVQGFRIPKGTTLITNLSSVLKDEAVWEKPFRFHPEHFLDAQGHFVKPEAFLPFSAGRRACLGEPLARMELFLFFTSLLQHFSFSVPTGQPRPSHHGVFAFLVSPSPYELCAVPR
# CYP3A4 = CYP3A4 (Homo sapiens, UniProt P08684); test: Inhibition of CYP3A4 (unknown origin) at 10 uM; type: ADME
# CYP3A4, sequence (P08684 whole entry): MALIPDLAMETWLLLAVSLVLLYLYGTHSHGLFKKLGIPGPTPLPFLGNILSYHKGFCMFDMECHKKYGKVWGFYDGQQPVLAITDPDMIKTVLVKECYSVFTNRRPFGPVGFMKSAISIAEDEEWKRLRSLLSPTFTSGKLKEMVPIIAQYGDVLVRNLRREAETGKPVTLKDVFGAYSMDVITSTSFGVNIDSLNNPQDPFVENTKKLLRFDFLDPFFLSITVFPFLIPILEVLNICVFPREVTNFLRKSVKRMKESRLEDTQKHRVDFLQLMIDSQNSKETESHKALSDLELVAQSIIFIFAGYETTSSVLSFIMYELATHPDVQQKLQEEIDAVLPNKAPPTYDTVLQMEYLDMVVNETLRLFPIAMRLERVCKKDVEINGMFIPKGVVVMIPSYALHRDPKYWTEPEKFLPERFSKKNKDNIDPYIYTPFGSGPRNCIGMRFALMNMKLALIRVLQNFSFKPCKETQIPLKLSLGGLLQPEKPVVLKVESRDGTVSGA
# CYP1A2 = biological target: T1, CYP1A2 (Homo sapiens, UniProt P05177); test: Inhibition of CYP1A2 (unknown origin) at 10 uM; type: ADME
# T1 sequence (P05177 whole entry): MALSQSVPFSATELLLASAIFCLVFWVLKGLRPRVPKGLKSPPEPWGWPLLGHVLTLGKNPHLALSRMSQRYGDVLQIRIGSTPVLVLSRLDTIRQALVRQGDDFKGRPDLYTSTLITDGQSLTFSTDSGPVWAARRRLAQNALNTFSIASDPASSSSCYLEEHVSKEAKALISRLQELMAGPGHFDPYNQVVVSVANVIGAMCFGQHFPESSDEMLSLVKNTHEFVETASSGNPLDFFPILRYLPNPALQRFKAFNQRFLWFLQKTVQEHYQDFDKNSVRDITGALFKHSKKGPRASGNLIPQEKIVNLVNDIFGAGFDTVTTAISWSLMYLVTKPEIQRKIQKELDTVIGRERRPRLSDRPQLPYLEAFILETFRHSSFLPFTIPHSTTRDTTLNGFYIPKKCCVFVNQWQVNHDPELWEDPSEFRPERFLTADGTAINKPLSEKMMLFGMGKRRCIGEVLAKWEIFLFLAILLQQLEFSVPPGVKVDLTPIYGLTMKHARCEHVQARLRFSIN
# Salmonella typhimurium = test: Mutagenicity in Salmonella typhimurium at 5 mg by Ames test; type: toxicity, organism-based, Salmonella enterica subsp. enterica serovar Typhimurium; details: in vivo
# [15] = Half life in beagle dog at 0.1 mg/kg, po; type: ADME, organism-based, Canis lupus familiaris; details: in vivo
# [16] = AUC (0 to t) in beagle dog at 0.1 mg/kg, po; type: ADME, organism-based, Canis lupus familiaris; details: in vivo
# [17] = AUC (0 to infinity) in beagle dog at 0.1 mg/kg, po; type: ADME, organism-based, Canis lupus familiaris; set-up: dose 0.1 mg/kg, route oral, time infinity; details: in vivo
# [18] = Cmax in beagle dog at 0.1 mg/kg, po; type: ADME, organism-based, Canis lupus familiaris; set-up: dose 0.1 mg/kg, route oral; details: in vivo
# [19] = Tmax in beagle dog at 0.1 mg/kg, po; type: ADME, organism-based, Canis lupus familiaris; details: in vivo
# Canis familiaris = test: Clast in beagle dog at 0.1 mg/kg, po; type: ADME, organism-based, Canis lupus familiaris; details: in vivo
# [20] = Apparent oral clearance in beagle dog at 0.1 mg/kg, po; type: ADME, organism-based, Canis lupus familiaris; details: in vivo
# [21] = Absolute oral bioavailability in beagle dog at 0.1 mg/kg; type: ADME, organism-based, Canis lupus familiaris; details: in vivo
# [22] = Half life in human; type: ADME, organism-based; details: in vivo
# Mus musculus [23] = test: Toxicity in athymic nu/nu mouse assessed as mortality at 0.1 to 0.33 mg/kg, po qd for 28 days; type: organism-based; details: in vivo, 672 h
# Mus musculus [24] = test: Toxicity in athymic nu/nu mouse assessed as change in body weight at 0.1 to 0.33 mg/kg, po qd for 28 days; type: organism-based; details: in vivo, 672 h
# Mus musculus [25] = test: Decrease in PAR level in athymic nu/nu mouse xenografted with human MX1 cells at 1 mg/kg, po administered as single dose measured after 2 ,8 and 24 hrs by ELISA; type: functional, organism-based
# Mus musculus [26] = test: Decrease in PAR level in athymic nu/nu mouse xenografted with human MX1 cells at 100 mg/kg, po measured after 24 hrs by ELISA; type: functional, organism-based
# MX1 [27] = test: Antitumor activity against BRCA1 deficient human MX1 cells xenografted in athymic nu/nu mouse at 0.33 mg/kg, po qd administered for 28 days; type: functional, organism-based
# MX1 [28] = test: Antitumor activity against BRCA1 deficient human MX1 cells xenografted in athymic nu/nu mouse at 0.1 mg/kg, po qd administered for 21 days; type: functional, organism-based
# MX1 [29] = test: Antitumor activity against BRCA1 deficient human MX1 cells xenografted in athymic nu/nu mouse assessed as tumor growth inhibition at 0.165 mg/kg, po administered twice a day for 28 days; type: functional, organism-based
# MX1 [30] = test: Potentiation of cisplatin-induced tumor growth inhibition of BRCA1 deficient human MX1 cells xenografted in po dosed athymic nu/nu mouse drug administered for 8 days and animals were treated with cisplatin at 6 mg/kg, ip on day 3; type: functional, organism-based
# MX1 [31] = test: Potentiation of carboplatin-induced tumor growth inhibition of BRCA1 deficient human MX1 cells xenografted in athymic nu/nu mouse at 0.33 mg/kg po and animals were treated with carboplatin at 35 mg/kg, ip on day 1; type: functional, organism-based
Structure (SMILES),bioavailability [1],AUC [2],Cmax [3],Vd [4],clearance [5],half-life [6],"EC50 ([7]; Homo sapiens, CAPAN-1)","EC50 (MRC5; Homo sapiens, MRC5)",GI50 (LoVo [11]),IC50 [12],"EC50 (PARP 1, 2 and 3)",also measured
O=C(c1cc(Cc2n[nH]c(=O)c3ccccc23)ccc1F)N1CCN(C(=O)C2CC2)CC1 [OLAPARIB],11%,559 ng·h/mL,437 ng/mL,0.83 L/kg,34.3 mL/min/kg,0.53 h,259 nM,5830 nM,–,–,–,inhibition (Mus musculus [8]): Active; Activity (MX1 [9]): inactive; GI50 (LoVo [10]): 237 nM
C[C@]1(c2nc3c(C(N)=O)cccc3[nH]2)CCCN1 [VELIPARIB],–,–,–,–,–,–,–,–,6200 nM,–,–,EC50 ([7]; capan-1): > 10000 nM; EC50 (MRC5; mrc5): > 10000 nM
Cn1ccnc1[C@H]1c2n[nH]c(=O)c3cccc(c23)N[C@@H]1c1ccc(F)cc1,91%,36500 ng·h/mL,10500 ng/mL,0.5 L/kg,4 mL/min/kg,2.3 h,305 nM,–,261 nM,2.25 nM,6.9 nM,–
Cn1ncnc1[C@H]1c2n[nH]c(=O)c3cc(F)cc(c23)N[C@@H]1c1ccc(F)cc1 [TALAZOPARIB],56%,56100 ng·h/mL,7950 ng/mL,0.3 L/kg,2 mL/min/kg,–,5 nM,310 nM,4 nM,–,–,beta t1/2 (Rattus norvegicus): 2.25 h; inhibition at 10 µM (CYP2C19): < 12%; IC50 [13]: > 100000 nM; fraction unbound [14]: 0.213; inhibition at 10 µM (CYP2C9): < 12%; inhibition at 10 µM (CYP2D6): < 12%; inhibition at 10 µM (CYP3A4): < 12%; inhibition at 10 µM (CYP1A2): < 12%; Activity (Salmonella typhimurium): Non-toxic; half-life [15]: 17.9 h; AUC(0-t) [16]: 619 ng·h/mL; AUC(0-inf) [17]: 629 ng·h/mL; Cmax [18]: 72.2 ng/mL; Tmax [19]: 2 h; Clast (Canis familiaris): 0.365 ng/mL; CL/F [20]: 2.7 mL/min/kg; bioavailability [21]: 121%; half-life [22]: 40 h; Activity (Mus musculus [23]): Non-toxic; Activity (Mus musculus [24]): Non-toxic
Cn1ncnc1[C@H]1c2n[nH]c(=O)c3cc(F)cc(c23)N[C@@H]1c1ccc(F)cc1,–,–,–,–,–,–,–,–,–,–,–,inhibition (Mus musculus [25]): Active; inhibition (Mus musculus [26]): inactive; Activity (MX1 [27]): Active; Activity (MX1 [28]): inactive; Activity (MX1 [29]): Active; Activity (MX1 [30]): Dose-dependent effect; Activity (MX1 [31]): Active
O=c1[nH]nc2c3c(cccc13)N[C@H](c1ccc(CN3CCC3)cc1)[C@H]2c1ccc(F)cc1,14%,914 ng·h/mL,126 ng/mL,4.5 L/kg,26 mL/min/kg,2.29 h,389 nM,–,279 nM,1.1 nM,6.3 nM,–
